In ChEMBL document CHEMBL3045611, “Identification of the G143A mutation associated with QoI resistance in Cercospora beticola field isolates from Michigan, United States” (Pest Manag Sci, 2013):
Converted amounts (≈) assume the structure as drawn.

What was measured:
Format in all cases: functional, organism-based
[1] = system: Cercospora beticola; assay: Antifungal activity against Cercospora beticola isolate 11-1008-1 expressing cytb with alanine at codon 143 assessed as reduction in spore germination
[2] = system: Cercospora beticola; assay: Antifungal activity against Cercospora beticola isolate 11-1046-1 expressing cytb with alanine at codon 143 assessed as reduction in spore germination
[3] = system: Cercospora beticola; assay: Antifungal activity against Cercospora beticola isolate 98-101-5-M expressing cytb with glycine at codon 143 assessed as reduction in spore germination
[4] = system: Cercospora beticola; assay: Antifungal activity against Cercospora beticola isolate 11-1006-2 expressing cytb with alanine at codon 143 assessed as reduction in spore germination
[5] = system: Cercospora beticola; assay: Antifungal activity against Cercospora beticola isolate 11-1041-1 expressing cytb with alanine at codon 143 assessed as reduction in spore germination
[6] = system: Cercospora beticola; assay: Antifungal activity against Cercospora beticola isolate 98-9-M expressing cytb with glycine at codon 143 assessed as reduction in spore germination
[7] = system: Cercospora beticola; assay: Antifungal activity against Cercospora beticola isolate 11-1009-1 expressing cytb with alanine at codon 143 assessed as reduction in spore germination
[8] = system: Cercospora beticola; assay: Antifungal activity against Cercospora beticola isolate 11-1015-2 expressing cytb with alanine at codon 143 assessed as reduction in spore germination
[9] = system: Cercospora beticola; assay: Antifungal activity against Cercospora beticola isolate 11-1042-2 expressing cytb with alanine at codon 143 assessed as reduction in spore germination
[10] = system: Cercospora beticola; assay: Antifungal activity against Cercospora beticola isolate 11-1015-1 expressing cytb with alanine at codon 143 assessed as reduction in spore germination
[11] = system: Cercospora beticola; assay: Antifungal activity against Cercospora beticola isolate 98-10-M expressing cytb with glycine at codon 143 assessed as reduction in spore germination
[12] = system: Cercospora beticola; assay: Antifungal activity against Cercospora beticola isolate 99-233-3-M expressing cytb with glycine at codon 143 assessed as reduction in spore germination
[13] = system: Cercospora beticola; assay: Antifungal activity against Cercospora beticola isolate 98-150-M expressing cytb with glycine at codon 143 assessed as reduction in spore germination
[14] = system: Cercospora beticola; assay: Antifungal activity against Cercospora beticola isolate 11-1003-2 expressing cytb with alanine at codon 143 assessed as reduction in spore germination
[15] = system: Cercospora beticola; assay: Antifungal activity against Cercospora beticola isolate 11-1038-1 expressing cytb with alanine at codon 143 assessed as reduction in spore germination
[16] = system: Cercospora beticola; assay: Antifungal activity against Cercospora beticola isolate 11-1042-1 expressing cytb with alanine at codon 143 assessed as reduction in spore germination
[17] = system: Cercospora beticola; assay: Antifungal activity against Cercospora beticola isolate 98-12-M expressing cytb with glycine at codon 143 assessed as reduction in spore germination
[18] = system: Cercospora beticola; assay: Antifungal activity against Cercospora beticola isolate 11-1044-1 expressing cytb with alanine at codon 143 assessed as reduction in spore germination
[19] = system: Cercospora beticola; assay: Antifungal activity against Cercospora beticola isolate 11-1035-2 expressing cytb with alanine at codon 143 assessed as reduction in spore germination
[20] = system: Cercospora beticola; assay: Antifungal activity against Cercospora beticola isolate 11-1016-1 expressing cytb with alanine at codon 143 assessed as reduction in spore germination
[21] = system: Cercospora beticola; assay: Antifungal activity against Cercospora beticola isolate 11-1040-2 expressing cytb with alanine at codon 143 assessed as reduction in spore germination
[22] = system: Cercospora beticola; assay: Antifungal activity against Cercospora beticola isolate 98-19-M expressing cytb with glycine at codon 143 assessed as reduction in spore germination
[23] = system: Cercospora beticola; assay: Antifungal activity against Cercospora beticola isolate 11-1022-2 expressing cytb with alanine at codon 143 assessed as reduction in spore germination
[24] = system: Cercospora beticola; assay: Antifungal activity against Cercospora beticola isolate 11-1038-2 expressing cytb with alanine at codon 143 assessed as reduction in spore germination
[25] = system: Cercospora beticola; assay: Antifungal activity against Cercospora beticola isolate 11-1040-1 expressing cytb with alanine at codon 143 assessed as reduction in spore germination
[26] = system: Cercospora beticola; assay: Antifungal activity against Cercospora beticola isolate 11-1043-2 expressing cytb with alanine at codon 143 assessed as reduction in spore germination
[27] = system: Cercospora beticola; assay: Antifungal activity against Cercospora beticola isolate 11-1005-1 expressing cytb with alanine at codon 143 assessed as reduction in spore germination
[28] = system: Cercospora beticola; assay: Antifungal activity against Cercospora beticola isolate 11-1027-2 expressing cytb with alanine at codon 143 assessed as reduction in spore germination
[29] = system: Cercospora beticola; assay: Antifungal activity against Cercospora beticola isolate 11-1036-2 expressing cytb with alanine at codon 143 assessed as reduction in spore germination
[30] = system: Cercospora beticola; assay: Antifungal activity against Cercospora beticola isolate 11-1028-2 expressing cytb with alanine at codon 143 assessed as reduction in spore germination
[31] = system: Cercospora beticola; assay: Antifungal activity against Cercospora beticola isolate 11-1044-2 expressing cytb with alanine at codon 143 assessed as reduction in spore germination
[32] = system: Cercospora beticola; assay: Antifungal activity against Cercospora beticola isolate 11-1022-1 expressing cytb with alanine at codon 143 assessed as reduction in spore germination
[33] = system: Cercospora beticola; assay: Antifungal activity against Cercospora beticola isolate 98-13-M expressing cytb with glycine at codon 143 assessed as reduction in spore germination
[34] = system: Cercospora beticola; assay: Antifungal activity against Cercospora beticola isolate 11-1007-1 expressing cytb with alanine at codon 143 assessed as reduction in spore germination
[35] = system: Cercospora beticola; assay: Antifungal activity against Cercospora beticola isolate 11-1039-1 expressing cytb with alanine at codon 143 assessed as reduction in spore germination
[36] = system: Cercospora beticola; assay: Antifungal activity against Cercospora beticola isolate 11-1036-1 expressing cytb with alanine at codon 143 assessed as reduction in spore germination
[37] = system: Cercospora beticola; assay: Antifungal activity against Cercospora beticola isolate 11-1028-1 expressing cytb with alanine at codon 143 assessed as reduction in spore germination
[38] = system: Cercospora beticola; assay: Antifungal activity against Cercospora beticola isolate 11-1027-1 expressing cytb with alanine at codon 143 assessed as reduction in spore germination
[39] = system: Cercospora beticola; assay: Antifungal activity against Cercospora beticola isolate 11-1005-2 expressing cytb with alanine at codon 143 assessed as reduction in spore germination
[40] = system: Cercospora beticola; assay: Antifungal activity against Cercospora beticola isolate 11-1045-2 expressing cytb with alanine at codon 143 assessed as reduction in spore germination
[41] = system: Cercospora beticola; assay: Antifungal activity against Cercospora beticola isolate 11-1046-2 expressing cytb with alanine at codon 143 assessed as reduction in spore germination
[42] = system: Cercospora beticola; assay: Antifungal activity against Cercospora beticola isolate 11-1026-2 expressing cytb with alanine at codon 143 assessed as reduction in spore germination
[43] = system: Cercospora beticola; assay: Antifungal activity against Cercospora beticola isolate 11-1007-2 expressing cytb with alanine at codon 143 assessed as reduction in spore germination
[44] = system: Cercospora beticola; assay: Antifungal activity against Cercospora beticola isolate 11-1026-1 expressing cytb with alanine at codon 143 assessed as reduction in spore germination
[45] = system: Cercospora beticola; assay: Antifungal activity against Cercospora beticola isolate 11-1004-1 expressing cytb with alanine at codon 143 assessed as reduction in spore germination
[46] = system: Cercospora beticola; assay: Antifungal activity against Cercospora beticola isolate 11-1037-2 expressing cytb with alanine at codon 143 assessed as reduction in spore germination
[47] = system: Cercospora beticola; assay: Antifungal activity against Cercospora beticola isolate 11-1014-1 expressing cytb with alanine at codon 143 assessed as reduction in spore germination
[48] = system: Cercospora beticola; assay: Antifungal activity against Cercospora beticola isolate 11-1037-1 expressing cytb with alanine at codon 143 assessed as reduction in spore germination
[49] = system: Cercospora beticola; assay: Antifungal activity against Cercospora beticola isolate 99-521-29-M expressing cytb with glycine at codon 143 assessed as reduction in spore germination

Work on `COC(=O)N(OC)c1ccccc1COc1ccn(-c2ccc(Cl)cc2)n1` [PYRACLOSTROBIN] yielded an EC50 [1] of 4.82 µg/mL (≈ 12.4 µM), an EC50 [2] of 41.7 µg/mL (≈ 108 µM) and an EC50 [3] of 0.001 µg/mL (≈ 0.00258 µM). For the same molecule, the EC50 [4] was 9.54 µg/mL (≈ 24.6 µM), the EC50 [5] was 4.55 µg/mL (≈ 11.7 µM) and the EC50 [6] was 0.001 µg/mL (≈ 0.00258 µM). It also gave an EC50 [7] of 47.4 µg/mL (≈ 122 µM), an EC50 [8] of 2.1 µg/mL (≈ 5.41 µM) and an EC50 [9] of 32.6 µg/mL (≈ 84.1 µM). The EC50 [10] was 72.2 µg/mL (≈ 186 µM), the EC50 [11] was 0.001 µg/mL (≈ 0.00258 µM) and the EC50 [12] was 0.001 µg/mL (≈ 0.00258 µM). The EC50 [13] was 0.001 µg/mL (≈ 0.00258 µM), the EC50 [14] was 0.915 µg/mL (≈ 2.36 µM) and the EC50 [15] was 39.9 µg/mL (≈ 103 µM). The EC50 [16] was 31.4 µg/mL (≈ 80.9 µM), the EC50 [17] was 0.001 µg/mL (≈ 0.00258 µM) and the EC50 [18] was 14.3 µg/mL (≈ 36.8 µM). The EC50 [19] was 31 µg/mL (≈ 80 µM), the EC50 [20] was 51.7 µg/mL (≈ 133 µM) and the EC50 [21] was 22.3 µg/mL (≈ 57.6 µM). The EC50 [22] was 0.003 µg/mL (≈ 0.00774 µM), the EC50 [23] was 6.37 µg/mL (≈ 16.4 µM) and the EC50 [24] was 3.24 µg/mL (≈ 8.35 µM). The EC50 [25] was 12 µg/mL (≈ 31 µM), the EC50 [26] was 16.9 µg/mL (≈ 43.6 µM) and the EC50 [27] was 46 µg/mL (≈ 119 µM). It also gave an EC50 [28] of 4.12 µg/mL (≈ 10.6 µM), an EC50 [29] of 5.55 µg/mL (≈ 14.3 µM) and an EC50 [30] of 4.53 µg/mL (≈ 11.7 µM). For the same molecule, the EC50 [31] was 5.23 µg/mL (≈ 13.5 µM), the EC50 [32] was 29.7 µg/mL (≈ 76.5 µM) and the EC50 [33] was 0.006 µg/mL (≈ 0.0155 µM). For the same molecule, the EC50 [34] was 4.78 µg/mL (≈ 12.3 µM), the EC50 [35] was 20.4 µg/mL (≈ 52.7 µM) and the EC50 [36] was 29.7 µg/mL (≈ 76.5 µM). It also gave an EC50 [37] of 8.79 µg/mL (≈ 22.7 µM), an EC50 [38] of 25.9 µg/mL (≈ 66.9 µM) and an EC50 [39] of 7.86 µg/mL (≈ 20.3 µM). The EC50 [40] was 16.2 µg/mL (≈ 41.9 µM), the EC50 [41] was 26.2 µg/mL (≈ 67.6 µM) and the EC50 [42] was 7.56 µg/mL (≈ 19.5 µM). The EC50 [43] was 16.1 µg/mL (≈ 41.5 µM), the EC50 [44] was 7.15 µg/mL (≈ 18.4 µM) and the EC50 [45] was 5.34 µg/mL (≈ 13.8 µM). The EC50 [46] was 5.92 µg/mL (≈ 15.3 µM), the EC50 [47] was 5.03 µg/mL (≈ 13 µM) and the EC50 [48] was 40.9 µg/mL (≈ 105 µM). It also gave an EC50 [49] of 0.001 µg/mL (≈ 0.00258 µM).
